Assays:
Assay type in all cases: in vivo
[1] = system: Musca domestica (houseflies - adults); experiment: Contact test, houseflies - adults (MD), Cotton wool/sugar; conditions: 24 h, 1 day, read-out: MD grading of mortality
Protocol: (§1) The activity of the Product was determined using a variety of insect pests. The Product was used in the form of liquid preparations containing from 100 to 500 parts per million (ppm) by weight of the Product. The preparations were made by dissolving the Product in acetone and diluting the solutions with water containing 0.1% by weight of a wetting agent sold under the trade name "SYNPERONIC" NX until the liquid preparations contained the required concentration of the Product. "SYNPERONIC" is a Registered Trade Mark. The test procedure adopted with regard to each pest was basically the same and comprised supporting a number of the pests on a medium which was usually a host plant or a foodstuff on which the pests feed, and treating either or both the pests and the medium with the preparations. The mortality of the pests was then assessed at periods usually varying from one to seven days after the treatment.

Myzus persicae (aphids) = experiment: Contact test, aphids (MP), Chinese Cabbage leaf; conditions: 72 h, 3 days, read-out: MP grading of mortality
Protocol: as §1, with “treatment. […] In Table III the pest organism used is designated by a letter code and the pests species, the support medium or food, and the type and duration of test is given in Table II.” for “treatment.”

[2] = system: Musca domestica (houseflies - adults); experiment: Knockdown test, houseflies - adults (MD/KD), Cotton wool/sugar; conditions: 4 hours, read-out: MD/KD grading of knockdown
Protocol: (§2) The activity of the Product was determined using a variety of insect pests. The Product was used in the form of liquid preparations containing from 100 to 500 parts per million (ppm) by weight of the Product. The preparations were made by dissolving the Product in acetone and diluting the solutions with water containing 0.1% by weight of a wetting agent sold under the trade name "SYNPERONIC" NX until the liquid preparations contained the required concentration of the Product. "SYNPERONIC" is a Registered Trade Mark.
(§3) The test procedure adopted with regard to each pest was basically the same and comprised supporting a number of the pests on a medium which was usually a host plant or a foodstuff on which the pests feed, and treating either or both the pests and the medium with the preparations. The mortality of the pests was then assessed at periods usually varying from one to seven days after the treatment.
In the case of the species Musca domestica (housefly), an additional assessment to determine the knockdown effect of the compounds was performed.
(§4) In Table III the pest organism used is designated by a letter code and the pests species, the support medium or food, and the type and duration of test is given in Table II.

[3] = system: Nilaparvata lugens (brown plant hopper - nymphs); experiment: Contact test, brown plant hopper - nymphs (NL), Rice plant; conditions: 72 h, 3 days, read-out: NL grading of mortality
Protocol: as §1

[4] = system: Blattella germanica (cockroach nymphs); experiment: Residual test, cockroach nymphs (BG), Plastic pot; conditions: 72 h, 3 days, read-out: BG grading of mortality
Protocol: as §1

[5] = system: Heliothis virescens (tobacco budworm - larvae); experiment: Residual test, tobacco budworm - larvae (HV), Cotton leaf; conditions: 72 h, read-out: HV grading of mortality
Protocol: as §2, §3
(§5) The results of the tests are given in Table III for each of the Products, at the rate in parts per million given in the second column as a grading of mortality designated as A, B or C wherein A indicates 80-100% mortality or knockdown (70-100% for Meloidogyne incognita), B indicates 50-79% mortality knockdown or knockdown (50-69% for Meloidogyne incognita) and C indicates less than 50% mortality or knockdown.
as §4
(tobacco budworm - larvae)

[6] = system: Spodoptera exigua (lesser army worm - larvae); experiment: Residual test, lesser army worm - larvae (SP), Cotton leaf; conditions: 72 h, 3 days, read-out: SP grading of mortality
Protocol: as §2, §3, §5, §4
(lesser army worm - larvae)

[7] = system: Meloidogyne incognita (Tomato root knot eelworm - larvae); experiment: Residual test, Tomato root knot eelworm - larvae (MI), Semi in-vitro; conditions: 168 h, application rate is half that recorded, 7 days, read-out: MI grading of mortality; for mortality at 250 µg/mL: rate column 500 ppm; for mortality at 125 µg/mL: rate 250 ppm
[8] = system: Tetranychus urticae (spider mites - adult); experiment: Contact test, spider mites - adult (TUa), French bean leaf; conditions: 72 h, 3 days, read-out: TUA grading of mortality
Protocol: as §1

[9] = system: Diabrotica balteata (rootworm larvae); experiment: Residual test, rootworm larvae (DB), Filter paper/maize seed; conditions: 72 h, 3 days, read-out: DB grading of mortality
Protocol: as §1

[10] = system: Tetranychus urticae (spider mites - ova); experiment: Contact test, spider mites - ova (TUe), French bean leaf; conditions: 144 h, 6 days, read-out: TUE grading of mortality
Protocol: as §1

SMILES | mortality at 500 ppm [1] | mortality at 500 ppm (Myzus persicae (aphids)) | pest or weed control at 500 ppm [2] | mortality at 500 ppm [3] | mortality at 500 ppm [4] | mortality at 500 ppm [5] | mortality at 500 ppm [6] | mortality at 250 µg/mL [7] | mortality at 500 ppm [8] | mortality at 500 ppm [9] | mortality at 500 ppm [10] | also measured
CCOc1ccc(C(CCCc2cccc(Oc3ccccc3)c2)C(F)F)cc1 (racemic) [Compound 66, 1,1-Difluoro-2-(4-ethoxyphenyl)-5-(3-phenoxyphenyl)pentane] | 80 to 100% | 80 to 100% | < 50% | 80 to 100% | 80 to 100% | 80 to 100% | 80 to 100% | < 50% | < 50% | 80 to 100% | < 50% | 
FC(F)(F)C(CCCc1cccc(Oc2ccccc2)c1)c1ccc(OC(F)(F)C(F)(F)Br)cc1 (racemic) [Compound 68, 1,1,1-trifluoro-2-[4-(2-bromo-1,1,2,2-tetrafluoroethoxy)phenyl]-5-(3-phenoxyphenyl)-pentane] | < 50% | < 50% | < 50% | 80 to 100% | 80 to 100% | < 50% | 50 to 79% | < 50% | 80 to 100% | 80 to 100% | 80 to 100% | 
CCOc1ccc(C(CCCc2cccc(Oc3ccccc3)c2)C(F)(F)Cl)cc1 (racemic) [Compound 69, 1,1-Difluoro-1-chloro-2-(4-ethoxyphenyl)-5-(3-phenoxyphenyl)pentane] | 80 to 100% | 80 to 100% | < 50% | 80 to 100% | 80 to 100% | 80 to 100% | 80 to 100% | < 50% | < 50% | 80 to 100% | < 50% | 
Fc1cc(C(CCCc2cccc(Oc3ccccc3)c2)C(F)(F)F)cc(F)c1OC(F)(F)F (racemic) [Compound 71, 1,1,1-Trifluoro-2-(3,5-difluoro-4-trifluoromethoxyphenyl)-5-(3-phenoxyphenyl)pentane] | < 50% | 80 to 100% | < 50% | 50 to 79% | < 50% | 80 to 100% | 80 to 100% | 70 to 100% | < 50% | 80 to 100% | < 50% | 
Fc1ccc(C(CCCc2cccc(Oc3ccccc3)c2)C(F)(F)F)c(F)c1OC(F)(F)F (racemic) [Compound 72, 1,1,1-Trifluoro-2-(2,4-difluoro-3-trifluoromethoxyphenyl)-5-(3-phenoxyphenyl)-pentane] | < 50% | 80 to 100% | < 50% | 50 to 79% | 80 to 100% | 80 to 100% | 80 to 100% | < 50% | 50 to 79% | 80 to 100% | < 50% | 
CCOc1ccc(C(CC=Cc2c(F)c(F)c(F)c(F)c2F)C(F)(F)F)cc1 (centres unmarked) [Compound 42, 1,1,1-Trifluoro-2-(4-ethoxyphenyl)-5-(pentafluorophenyl)pent-4-ene] | < 50% | < 50% | < 50% | < 50% | < 50% | < 50% | < 50% | < 50% | < 50% | 80 to 100% | < 50% | 
COCc1ccc(C(=CCCc2cccc(Oc3ccccc3)c2)C(F)(F)F)cc1 [Compound 44, 1,1,1-Trifluoro-2-(4-methoxymethylphenyl)-5-(3-phenoxyphenyl)-pent-2-ene] | < 50% | < 50% | < 50% | < 50% | < 50% | < 50% | 50 to 79% | < 50% | 80 to 100% | < 50% | < 50% | 
COc1ccc(C(=CCCc2cccc(Oc3ccccc3)c2)C(F)(F)F)cc1 [Compound 46, 1,1,1-Trifluoro-2-(4-methoxyphenyl)-5-(3-phenoxyphenyl)pent-2-ene] | < 50% | < 50% | < 50% | < 50% | < 50% | 80 to 100% | < 50% | < 50% | < 50% | < 50% | < 50% | 
Fc1ccc(C(=CCCc2cccc(Oc3ccccc3)c2)C(F)(F)F)cc1 [Compound 47, 1,1,1-Trifluoro-2-(4-fluorophenyl)-5-(3-phenoxyphenyl)pent-2-ene] |  |  |  |  |  |  |  |  |  |  |  | mortality at 250 ppm [1]: < 50%; mortality at 250 ppm (Myzus persicae (aphids)): < 50%; pest or weed control at 250 ppm [2]: < 50%; mortality at 250 ppm [3]: < 50%; mortality at 250 ppm [4]: 50 to 79%; mortality at 250 ppm [5]: < 50%; mortality at 250 ppm [6]: 50 to 79%; mortality at 125 µg/mL [7]: 50 to 69%; mortality at 250 ppm [8]: < 50%; mortality at 250 ppm [9]: 50 to 79%; mortality at 250 ppm [10]: < 50%
FC(F)(F)C(=CCCc1cccc(Oc2ccccc2)c1)c1ccc2c(c1)CCC2 [Compound 48, 1,1,1-Trifluoro-2-(5-indanyl)-5-(3-phenoxyphenyl)pent-2-ene] |  |  |  |  |  |  |  |  |  |  |  | mortality at 250 ppm [1]: < 50%; mortality at 250 ppm (Myzus persicae (aphids)): < 50%; pest or weed control at 250 ppm [2]: < 50%; mortality at 250 ppm [3]: < 50%; mortality at 250 ppm [4]: 50 to 79%; mortality at 250 ppm [5]: < 50%; mortality at 250 ppm [6]: < 50%; mortality at 125 µg/mL [7]: < 50%; mortality at 250 ppm [8]: < 50%; mortality at 250 ppm [9]: 50 to 79%; mortality at 250 ppm [10]: < 50%

Source: patent US4791139A, “Diphenyl ether derivatives and their use as insecticides” (Imperial Chemical Industries PLC, priority 1986, dated 1988)
